Test results taken from patent US12201632B2, “Levoketoconazole for treatment of congenital adrenal hyperplasia and primary aldosteronism” (Strongbridge Dublin Limited, priority 2018, dated 2025).
Like-named read-outs stand apart in the source and are kept apart here.

How the values were obtained:
HAC15 cells = assay: Cortisol production by HAC15 cells (immunoassay); type: cell-based, Human; details: HAC15, after 3 days of treatment (FIG. 1B)
Experimental: (§1) Human adrenocortical carcinoma HAC15 and mouse corticotroph AtT20 cells were used, purchased as a kind gift by Dr. W. Rainey, and obtained from Dr. J. Tooze (European Organization for Molecular Biology), respectively. Both cell lines were cultured in 75 cm^2 flasks at 37° C. in a humidified incubator (Greiner Bio-One, Alphen a/d Rijn, the Netherlands) at 5% CO2. Dulbecco's Modified Eagle Medium F12 containing 5% fetal calf serum was used for HAC15, whereas AtT20 cells were cultured in Dulbecco's minimal essential medium (DMEM) supplemented with 10% fetal calf serum. Both mediums were supplemented with L-glutamine (2 mmol/L) and penicillin (10^5 U/L). Short tandem repeat (str) profiling using a Powerplex Kit (Promega, Leiden, the Netherlands) of HAC15 and AtT20 gave results consistent with the ATCC database, confirming the identity of both cell lines. Medium and supplements were obtained from Invitrogen, Breda, the Netherlands. Once a week, cells were harvested with trypsin (0.05%)-EDTA (0.53 mM) and resuspended in culture medium. Levoketoconazole (COR-003) and racemic ketoconazole (both from Cortendo AB) were dissolved in absolute ethanol (EtOH), according to manufacturer's instructions, and stored at −20° C. at a stock concentration of […]. At the start of each experiment, both drugs were freshly prepared and diluted in EtOH in the correct concentrations. Synacten (synthetic ACTH, Novartis Pharma A.G.) stock concentration was stored at 4° C. and dissolved in culture medium at the day of use. The final concentrations of ACTH were chosen based on a dose-response curve in HAC15 cells and previously reported studies in the literature. For HAC15, 200,000 and 100,000 cells were plated in 0.5 ml medium in 24 well plates for experiments of 1 and 3 days, respectively. […]
Cortisol concentrations were measured in the supernatant using a chemiluminescence immunoassay system (Immulite 2000XPi; Siemens DPC Inc., Los Angeles, Calif., USA). In addition, we carried out multi-steroid analysis by liquid chromatography/mass spectrometry (LC/MS-MS) to accurately quantify androstenedione, corticosterone, cortisol, 11-deoxycortisol, DHEA, DHEAS, progesterone, 17-hydroxyprogesterone, and testosterone. […] Steroids were quantified with respect to a calibration series, with internal standards. Steroids were quantified on a Xevo TQS LC-MS/MS (Waters Chromatography).
Statistical analysis was performed using Graphpad Prism 6.0 (Graphpad Software, San Diego, CA). […] Effects of both compounds on the steroid profile were measured as absolute change compared to control and compared using the Student's t-test. When assessing differences between effects of both compounds, the percentage change was evaluated and compared in order to correct for differences in the vehicle treated control cells. […]

AtT20 cells = assay: ACTH secretion corrected for cell amount in AtT20 cells; type: cell-based, mouse
Experimental: as §1
At the end of the AtT20 and primary pituitary adenoma culture experiments, medium was collected and supplemented with 1% of the protease inhibitor Trasylol to prevent degradation of ACTH. ACTH was measured using a commercially available, nonisotopic automatic chemiluminescence system (DPC Immulite).

[1] = system: cortisol-producing adrenal adenoma cultures; assay: Cortisol production in primary cortisol-producing adrenal adenoma cultures; type: cell-based, human
Experimental: To obtain primary cultures, adrenal specimens (adrenocortical adenomas, adrenal hyperplasias and adrenocortical carcinomas) were collected after adrenalectomy at the department of Surgery, Erasmus University Medical Center, Rotterdam, the Netherlands, between April 2016 and May 2018. The study was conducted under guidelines that have been approved by the Medical Ethics Committee of the Erasmus Medical Center and informed consent was obtained from all patients. Immediately after surgery, specimens were minced into small pieces of 2-3 mm^3, washed in culture medium and centrifuged for 5 minutes at 600 g. The tissue was stored overnight in culture medium at 4° C., where after the tissue was centrifuged again and the supernatant was removed. Fragments were dissociated using 10-25 ml collagenase type 1 (2 mg/ml: Sigma-Aldrich), followed by incubation at 37° C. for up to two hours. Ficoll (GE healthcare) density gradient separation was used once or twice as required in order to separate contaminating red blood cells from the tumor cells. Cell viability and cell amount were counted by trypan blue exclusion. Dissociated cells were plated at a density of 10^5 cells per well. ACTH-secreting corticotroph pituitary adenoma tissue from patients with Cushing's disease (n=2) was available after transsphenoidal surgery. Single-cell suspensions of the pituitary adenoma tissues were prepared as previously described in detail.
Owing to a limited number of cells obtained from the specimens, not all experiments were carried out in every primary culture.
Cortisol concentrations were measured in the supernatant using a chemiluminescence immunoassay system (Immulite 2000XPi; Siemens DPC Inc., Los Angeles, Calif., USA). In addition, we carried out multi-steroid analysis by liquid chromatography/mass spectrometry (LC/MS-MS) to accurately quantify androstenedione, corticosterone, cortisol, 11-deoxycortisol, DHEA, DHEAS, progesterone, 17-hydroxyprogesterone, and testosterone. Concentrations that were tested on the LC/MS-MS were closest to 50% inhibition or maximal inhibition of cortisol as determined by the immunoassay. Steroids were quantified with respect to a calibration series, with internal standards. Steroids were quantified on a Xevo TQS LC-MS/MS (Waters Chromatography).
Statistical analysis was performed using Graphpad Prism 6.0 (Graphpad Software, San Diego, CA). Non-linear regression curve fitting program was used to calculate the half maximal inhibitory concentrations (IC50) on cortisol production. Effects of both compounds on the steroid profile were measured as absolute change compared to control and compared using the Student's t-test. When assessing differences between effects of both compounds, the percentage change was evaluated and compared in order to correct for differences in the vehicle treated control cells. Values of P<0.05 were considered statistically significant and data are presented as mean SEM.

| IC50 (HAC15 cells; Homo sapiens, 72 h) | IC50 ([1]; Homo sapiens, 72 h, CPA no. 2, basal condition, 3 days, read-out: IC50 inhibition of cortisol production) | IC50 ([1]; Homo sapiens, 72 h, CPA no. 3, basal condition, 3 days, read-out: IC50 inhibition of cortisol production) | Compound | inhibition at 10 µM (AtT20 cells; Mus musculus, 168 h, AtT20, 7 days of treatment with 10 μM, corrected for cell amount, read-out: Maximal inhibition of ACTH secretion) | IC50 (HAC15 cells) | Maximal inhibition of ACTH secretion (AtT20 cells; AtT20, 7 days of treatment with 10 μM, corrected for cell amount) | ACTH secretion corrected for cell amount (AtT20 cells; AtT20, after 3 days of treatment) | IC50 ([1]; CPA no. 1, basal condition, 3 days, read-out: IC50 inhibition of cortisol production) | IC50 ([1]; CPA no. 2, basal condition, 3 days, read-out: IC50 inhibition of cortisol production) | IC50 ([1]; CPA no. 3, basal condition, 3 days, read-out: IC50 inhibition of cortisol production) | IC50 ([1]; CPA no. 4, basal condition, 3 days, read-out: IC50 inhibition of cortisol production) | IC50 ([1]; basal condition, ACA (n=4), read-out: mean IC50 cortisol production) |
| --- | --- | --- | --- | --- | --- | --- | --- | --- | --- | --- | --- | --- |
| 611 nM | 266 nM | 138 nM | CC(=O)N1CCN(c2ccc(OCC3COC(Cn4ccnc4)(c4ccc(Cl)cc4Cl)O3)cc2)CC1 (racemic) [racemic ketoconazole, Ketoconazole] | 34% |  |  |  |  |  |  |  |  |
|  |  |  | CC(=O)N1CCN(c2ccc(OC[C@@H]3CO[C@@](Cn4ccnc4)(c4ccc(Cl)cc4Cl)O3)cc2)CC1 (relative stereo) [levoketoconazole, 2S,4R cis-1-acetyl-4-[4-[[2-(2,4-dichlorophenyl)-2-(1H-imidazol-1-ylmethyl)-1,3-dioxolan-4-yl]methoxyl]phenyl]piperazine] |  | 300 nM | 38% | showed inhibition of ACTH secretion | 116 nM | 125 nM | 140 nM | 63.1 nM | 110 nM |
